Assay results: the NIST ThermoML archive (doi:10.1021/acs.jced.7b00065)
± gives the expanded uncertainty stated by the source.

Experiments:
[1] = Molar enthalpy of transition or fusion; conditions: Crystal; DSC
[2] = Crystal; DTA

Cn1c(=O)c2[nH]cnc2n(C)c1=O [3,7-dihydro-1,3-dimethyl-1H-purine-2,6-dione]
Molar enthalpy of transition or fusion [1]: 6.91 ± 0.43 kcal/mol
Normal melting temperature [2]: 272.03 ± 1.1 °C
